Measured values as given in patent publication US20250368628A1, “METHODS AND COMPOUNDS FOR MODULATING INHERITED GENETIC DISEASES” (Design Therapeutics, Inc., priority 2022, published 2025).

Tested on: Myotonic Dystrophy 1 affected patient fibroblasts (Coriel GM04602; 1600 CTG repeats)
Experiment: DM1 foci reduction assay (EC50 assay; CAG10-Cy3 FISH, foci per nucleus)
Assay type: cell-based
Conditions: Homo sapiens, Fibroblast; DM1 patient fibroblasts, 48 h treatment, foci per nucleus; read-out: DM1 EC50, 48 h
Outline: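 Foci per nucleus counted by 20× imaging of 4 areas per well, after overnight FISH with 5 nM CAG10-Cy3 and DAPI staining of fixed, permeabilized cells. DM1 fibroblasts (GM04602, 1600 CTG) were dosed 48 h at 37 °C, 8 points, 3-fold dilutions, 3 μM top concentration.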

| Compound | EC50 |
| --- | --- |
| COCCOCCOCCOCCOCCOCCNC(=O)c1nc(NC(=O)c2cc(NC(=O)CCNC(=O)c3nc(NC(=O)CCCNC(=O)c4cc(NC(=O)c5nc(NC(=O)CCNC(=O)c6cc(NC(=O)c7nccn7C)cn6C)cn5C)cn4C)cn3C)cn2C)cn1C [Compound B-204] | 500 to 1000 nM |
| Cn1cc(NC(=O)c2nc(NC(=O)CCNC(=O)c3cc(NC(=O)c4nccn4C)cn3C)cn2C)cc1C(=O)NCCCC(=O)Nc1cn(C)c(C(=O)NCCC(=O)Nc2cc(C(=O)NCCOCCOCCOCCN3CCC(C#CC#CC4CCN(C(=O)OC(C)(C)C)CC4)CC3)n(C)c2)n1 [Compound B-210] | > 1000 nM |
| CN(C)CCCNC(=O)c1cc(NC(=O)CCNC(=O)c2nc(NC(=O)CCCNC(=O)c3cc(NC(=O)c4nc(NC(=O)CCNC(=O)c5cc(NC(=O)c6nccn6C)cn5C)cn4C)cn3C)cn2C)cn1C [Compound B-212] | > 1000 nM |
| Cn1cc(NC(=O)c2nc(NC(=O)CCNC(=O)c3cc(NC(=O)c4nccn4C)cn3C)cn2C)cc1C(=O)NCCCC(=O)Nc1cn(C)c(C(=O)NCCC(=O)Nc2cc(C(=O)Nc3cn(C)c(C(=O)NCCCCCCCNC(=O)c4cccc(C(=O)O)c4)n3)n(C)c2)n1 [Compound B-213] | > 1000 nM |
| Cn1cc(NC(=O)c2nc(NC(=O)CCNC(=O)c3cc(NC(=O)c4nccn4C)cn3C)cn2C)cc1C(=O)NCCCC(=O)Nc1cn(C)c(C(=O)NCCC(=O)Nc2cc(C(=O)Nc3cn(C)c(C(=O)NCCOCCOCCOc4cccc(C(=O)O)c4)n3)n(C)c2)n1 [Compound B-214] | 500 to 1000 nM |
| CN(CCCCCc1cccc(C(=O)O)c1)CCCNC(=O)c1nc(NC(=O)c2cc(NC(=O)CCNC(=O)c3nc(NC(=O)CCCNC(=O)c4cc(NC(=O)c5nc(NC(=O)CCNC(=O)c6cc(NC(=O)c7nccn7C)cn6C)cn5C)cn4C)cn3C)cn2C)cn1C [Compound B-215] | 100 to 500 nM |
| Cn1cc(NC(=O)c2nc(NC(=O)CCNC(=O)c3cc(NC(=O)c4nccn4C)cn3C)cn2C)cc1C(=O)NCCCC(=O)Nc1cn(C)c(C(=O)NCCC(=O)Nc2cc(C(=O)Nc3cn(C)c(C(=O)NCCOCCOCCOc4cncc(C(=O)O)c4)n3)n(C)c2)n1 [Compound B-216] | > 1000 nM |
| Cn1cc(NC(=O)c2nc(NC(=O)CCNC(=O)c3cc(NC(=O)c4nccn4C)cn3C)cn2C)cc1C(=O)NCCCC(=O)Nc1cn(C)c(C(=O)NCCC(=O)Nc2cc(C(=O)Nc3cn(C)c(C(=O)NCCCCNc4cccc(C(=O)O)c4)n3)n(C)c2)n1 [Compound B-218] | 100 to 500 nM |
| CCN(CC)CCCC[C@H](NC(=O)c1ccccc1)C(=O)NCCOCCOCCOCCOCCOCCNC(=O)c1nc(NC(=O)c2cc(NC(=O)CCNC(=O)c3nc(NC(=O)CCCNC(=O)c4cc(NC(=O)c5nc(NC(=O)CCNC(=O)c6cc(NC(=O)c7nccn7C)cn6C)cn5C)cn4C)cn3C)cn2C)cn1C [Compound B-219] | 500 to 1000 nM |
| CCN(CC)CCCC[C@H](NC(=O)c1cccc(C(=O)O)c1)C(=O)NCCOCCOCCOCCOCCOCCNC(=O)c1nc(NC(=O)c2cc(NC(=O)CCNC(=O)c3nc(NC(=O)CCCNC(=O)c4cc(NC(=O)c5nc(NC(=O)CCNC(=O)c6cc(NC(=O)c7nccn7C)cn6C)cn5C)cn4C)cn3C)cn2C)cn1C [Compound B-220] | > 1000 nM |
| CCN(CC)CCCC[C@H](NC(=O)c1cccc(C(=O)O)c1)C(=O)NCCOCCOCCOCCNC(=O)c1nc(NC(=O)c2cc(NC(=O)CCNC(=O)c3nc(NC(=O)CCCNC(=O)c4cc(NC(=O)c5nc(NC(=O)CCNC(=O)c6cc(NC(=O)c7nccn7C)cn6C)cn5C)cn4C)cn3C)cn2C)cn1C [Compound B-221] | > 1000 nM |
| CCN(CC)CCCC[C@H](NC(=O)c1cccc(C(=O)O)c1)C(=O)NCCOCCOCCOCCOCCOCCNC(=O)CCNC(=O)c1nc(NC(=O)c2cc(NC(=O)CCNC(=O)c3nc(NC(=O)CCCNC(=O)c4cc(NC(=O)c5nc(NC(=O)CCNC(=O)c6cc(NC(=O)c7nccn7C)cn6C)cn5C)cn4C)cn3C)cn2C)cn1C [Compound B-222] | 500 to 1000 nM |
| CCN(CC)CCCC[C@H](NC(=O)c1cccc(C(=O)O)c1)C(=O)NCCOCCOCCOCCNC(=O)CCNC(=O)c1nc(NC(=O)c2cc(NC(=O)CCNC(=O)c3nc(NC(=O)CCCNC(=O)c4cc(NC(=O)c5nc(NC(=O)CCNC(=O)c6cc(NC(=O)c7nccn7C)cn6C)cn5C)cn4C)cn3C)cn2C)cn1C [Compound B-223] | > 1000 nM |
| Cn1cc(NC(=O)c2nc(NC(=O)CCNC(=O)c3cc(NC(=O)c4nccn4C)cn3C)cn2C)cc1C(=O)NCCCC(=O)Nc1cn(C)c(C(=O)NCCC(=O)Nc2cc(C(=O)Nc3cn(C)c(C(=O)NCCC(=O)N4CCC(C#CC#CC5CCN(CCCNC(=O)c6cccc(C(=O)O)c6)CC5)CC4)n3)n(C)c2)n1 [Compound B-225] | 100 to 500 nM |
| CCCNC(=O)c1nc(NC(=O)c2cc(NC(=O)CCNC(=O)c3nc(NC(=O)CCCNC(=O)c4cc(NC(=O)c5nc(NC(=O)CCNC(=O)c6cc(NC(=O)c7nccn7C)cn6C)cn5C)cn4CCCCCCN=[N+]=[N-])cn3C)cn2C)cn1C [Compound B-231] | 100 to 500 nM |
| CCCNC(=O)CCNC(=O)c1nc(NC(=O)c2cc(NC(=O)CCNC(=O)c3nc(NC(=O)CCCNC(=O)c4cc(NC(=O)c5nc(NC(=O)CCNC(=O)c6cc(NC(=O)c7nccn7C)cn6C)cn5C)cn4CCCCCCNC(=O)CCOCCOCCOCCOCCOCCOC)cn3C)cn2C)cn1C [Compound B-238] | 100 to 500 nM |

| Compound | EC50 |
| --- | --- |
| COCCOCCOCCOCCN(CCOCCOCCOCCOC)C(=O)CCCCn1cc(NC(=O)c2nc(NC(=O)CCNC(=O)c3cc(NC(=O)c4nccn4C)cn3C)cn2C)cc1C(=O)NCCCC(=O)Nc1cn(C)c(C(=O)NCCC(=O)Nc2cc(C(=O)Nc3cn(C)c(C(=O)NCCC(=O)N4CCC(N5CCN(C(=O)OC(C)(C)C)CC5)CC4)n3)n(C)c2)n1 [Compound B-242] | > 1000 nM |
| Cn1cnc(NC(=O)c2cc(NC(=O)CCNC(=O)c3nc(NC(=O)CCCNC(=O)c4cc(NC(=O)c5nc(NC(=O)CCNC(=O)c6cc(NC(=O)c7nccn7C)cn6C)cn5C)cn4C)cn3C)cn2C)c1 [Compound B-243] | > 1000 nM |
| Cn1cc(NC(=O)c2nc(NC(=O)CCNC(=O)c3cc(NC(=O)c4nccn4C)cn3C)cn2C)cc1C(=O)NCCCC(=O)Nc1cn(C)c(C(=O)NCCC(=O)Nc2cc(C(=O)Nc3cn(C)c(C(=O)NCCCN4CCC(C#CC#CC5CCNCC5)CC4)n3)n(C)c2)n1 [Compound B-250] | 100 to 500 nM |
| Cn1cnc(NC(=O)c2cc(NC(=O)CCNC(=O)c3nc(NC(=O)CCCNC(=O)c4cc(NC(=O)c5nc(NC(=O)CCNC(=O)c6cc(NC(=O)c7nccn7C)cn6C)cn5C)cn4CCCCCCN=[N+]=[N-])cn3C)cn2C)c1 [Compound B-252] | > 1000 nM |
| CN(C)CCCNC(=O)c1cc(NC(=O)CCNC(=O)c2nc(NC(=O)CCCNC(=O)c3cc(NC(=O)c4nc(NC(=O)CCNC(=O)c5cc(NC(=O)c6nccn6C)cn5C)cn4C)cn3CCCCCCN=[N+]=[N-])cn2C)cn1C [Compound B-254] | > 1000 nM |
| COCCOCCOCCOCCN(CCOCCOCCOCCOC)C(=O)CCCCn1cc(NC(=O)c2nc(NC(=O)CCNC(=O)c3cc(NC(=O)c4nccn4C)cn3C)cn2C)cc1C(=O)NCCCC(=O)Nc1cn(C)c(C(=O)NCCC(=O)Nc2cc(C(=O)Nc3cn(C)c(C(=O)NCCC(=O)N4CCC(C#CC#CC5CCN(C(C)=O)CC5)CC4)n3)n(C)c2)n1 [Compound B-259] | > 1000 nM |
| CCCCCNC(=O)CCNC(=O)c1nc(NC(=O)c2cc(NC(=O)CCNC(=O)c3nc(NC(=O)CCCNC(=O)c4cc(NC(=O)c5nc(NC(=O)CCNC(=O)c6cc(NC(=O)c7nccn7C)cn6C)cn5C)cn4CCCCC(=O)N(CCOCCOCCOCCOC)CCOCCOCCOCCOC)cn3C)cn2C)cn1C [Compound B-261] | 100 to 500 nM |
| Cn1cc(NC(=O)c2nc(NC(=O)CCNC(=O)c3cc(NC(=O)c4nccn4C)cn3C)cn2C)cc1C(=O)NCCCC(=O)Nc1cn(C)c(C(=O)NCCC(=O)Nc2cc(C(=O)Nc3cn(C)c(C(=O)NCCC(=O)N4CCC(CC5CC[N+](C)(C)CC5)CC4)n3)n(C)c2)n1 [Compound B-262] | > 1000 nM |
| CCCNC(=O)CCNC(=O)c1nc(NC(=O)c2cc(NC(=O)CCNC(=O)c3nc(NC(=O)CCCNC(=O)c4cc(NC(=O)c5nc(NC(=O)CCNC(=O)c6cc(NC(=O)c7nccn7C)cn6C)cn5C)cn4CCCCCCNC(C)=O)cn3C)cn2C)cn1C [Compound B-292] | < 100 nM |
| CC(=O)NCCCCCCn1cc(NC(=O)c2nc(NC(=O)CCNC(=O)c3cc(NC(=O)c4nccn4C)cn3C)cn2C)cc1C(=O)NCCCC(=O)Nc1cn(C)c(C(=O)NCCC(=O)Nc2cc(C(=O)Nc3cn(C)c(C(=O)NCCC(=O)N4CCC(C#CC#CC5CCNCC5)CC4)n3)n(C)c2)n1 [Compound B-294] | < 100 nM |
| CN(C)C(=O)c1nc(NC(=O)c2cc(NC(=O)CCNC(=O)c3nc(NC(=O)CCCNC(=O)c4cc(NC(=O)c5nc(NC(=O)CCNC(=O)c6cc(NC(=O)c7nccn7C)cn6C)cn5C)cn4C)cn3C)cn2C)cn1C [Compound B-314] | > 1000 nM |
| CCCNC(=O)CCNC(=O)c1nc(NC(=O)c2cc(NC(=O)CCNC(=O)c3nc(NC(=O)CCCCNC(=O)c4cc(NC(=O)c5nc(NC(=O)CCNC(=O)c6cc(NC(=O)c7nccn7C)cn6C)cn5C)cn4C)cn3C)cn2C)cn1C [Compound B-317] | > 1000 nM |
| Cn1cc(NC(=O)c2nc(NC(=O)CCNC(=O)c3cc(NC(=O)c4nccn4C)cn3C)cn2C)cc1C(=O)NCCCC(=O)Nc1cn(C)c(C(=O)NCCC(=O)Nc2cc(C(=O)Nc3cn(C)c(C(=O)NCCC(=O)NCCCCCN4CCC(C#CC#CC5CCNCC5)CC4)n3)n(C)c2)n1 [Compound B-336] | > 1000 nM |
| Cn1cc(NC(=O)c2nc(NC(=O)CCNC(=O)c3cc(NC(=O)c4nccn4C)cn3C)cn2C)cc1C(=O)NCCCC(=O)Nc1cn(C)c(C(=O)NCCC(=O)Nc2cc(C(=O)Nc3cn(C)c(C(=O)NCCCCCCCNC(=O)c4cccc(C(=O)OC(C)(C)C)c4)n3)n(C)c2)n1 [Compound B-338] | > 1000 nM |
| COC(=O)c1cccc(OCCOCCOCCNC(=O)c2nc(NC(=O)c3cc(NC(=O)CCNC(=O)c4nc(NC(=O)CCCNC(=O)c5cc(NC(=O)c6nc(NC(=O)CCNC(=O)c7cc(NC(=O)c8nccn8C)cn7C)cn6C)cn5C)cn4C)cn3C)cn2C)c1 [Compound B-339] | 500 to 1000 nM |
| COC(=O)c1cccc(CCCCCN(C)CCCNC(=O)c2nc(NC(=O)c3cc(NC(=O)CCNC(=O)c4nc(NC(=O)CCCNC(=O)c5cc(NC(=O)c6nc(NC(=O)CCNC(=O)c7cc(NC(=O)c8nccn8C)cn7C)cn6C)cn5C)cn4C)cn3C)cn2C)c1 [Compound B-340] | < 100 nM |
